Drawing on US12473290B2, “Imidazopyridazine compounds useful as modulators of IL-12, IL-23 and/or IFN alpha responses” (BRISTOL-MYERS SQUIBB COMPANY, priority 2019, dated 2025), this text covers IC50 for 17 compounds.

One may read the pIC50 as the IC50 on a negative log10 scale, so that one unit is a factor of ten.

pIC50: −log10 of the molar value.

Assay [1] can be described thus: Kit225 T Cell Assay, IL-23-stimulated STAT-dependent luciferase reporter. Type of assay: cell-based. Particulars: Kit225 T cells, 20 ng/mL human recombinant IL-23, 5-6 hours, luciferase expression. As for the experimental part: (§1) Kit225 T cells with a stably-integrated STAT-dependent luciferase reporter were plated in RPMI (Gibco) containing 10% heat-inactivated FBS (Gibco) and 100 U/mL PenStrep (Gibco). The cells were then stimulated with either 20 ng/mL human recombinant IL-23 or 200 U/mL human recombinant IFNα (PBL InterferonSource) for 5-6 hours. Luciferase expression was measured using the STEADY-GLO® Luciferase Assay System (Promega) according to the manufacturer's instructions. Inhibition data were calculated by comparison to no inhibitor control wells for 0% inhibition and non-stimulated control wells for 100% inhibition. Dose response curves were generated to determine the concentration required to inhibit 50% of cellular response (IC50) as derived by non-linear regression analysis.

The subject of assay [2] is IFNα Kit225 Reporter (Kit225 T cells with a stably-integrated STAT-dependent luciferase reporter, stimulated with IFNα). Put plainly: Kit225 T Cell Assay, IFNα-stimulated STAT-dependent luciferase reporter. Type of assay: cell-based. Particulars: 200 U/mL human recombinant IFNα, 5-6 hours, luciferase expression. As for the experimental part:
as §1
For orientation: Reporter assays use an easily measured gene product as a stand-in for the process of interest.

Regarding `CC(C)(C)Oc1nc(Nc2cc(NC3CCOCC3)nn3c(C#N)cnc23)ccc1C(=O)N1CCCC1` [Example 24, 8-{[6-(tert-butoxy)-5-(pyrrolidine-1-carbonyl)pyridin-2-yl]amino}-6-[(oxan-4-yl)amino]imidazo[1,2-b]pyridazine-3-carbonitrile], the pIC50 in assay [1] was 6.15; in assay [2], 6.22.

Turning to `CC(C)(O)C(=O)Nc1cccc(Nc2cc(NC3CCOCC3)nn3c(C#N)cnc23)n1` [Example 25, N-[6-({3-cyano-6-[(oxan-4-yl)amino]imidazo[1,2-b]pyridazin-8-yl}amino)pyridin-2-yl]-2-hydroxy-2-methylpropanamide], the pIC50 was 6.47 in assay [1] and 6.35 in assay [2].

Regarding `CC(C)(C)C(=O)Nc1cccc(Nc2cc(NCC3CC3)nn3c(C#N)cnc23)n1` [Example 26, N-[6-({3-cyano-6-[(cyclopropylmethyl)amino]imidazo[1,2-b]pyridazin-8-yl}amino)pyridin-2-yl]-2,2-dimethylpropanamide], the values for the pIC50 in assay [1] and in assay [2] were 6.05 and 6.70, respectively.

For `N#Cc1cnc2c(Nc3cccc(NC(=O)C4CC4)n3)cc(NCC3CC3)nn12` [Example 27, N-[6-({3-cyano-6-[(cyclopropylmethyl)amino]imidazo[1,2-b]pyridazin-8-yl}amino)pyridin-2-yl]cyclopropanecarboxamide], the pIC50 was 6.51 in assay [1] and 6.80 in assay [2].

In the case of `CC(C)(C)CNc1cc(Nc2cccc(NC(=O)C3CC3)n2)c2ncc(C#N)n2n1` [Example 28, N-[6-({3-cyano-6-[(2,2-dimethylpropyl)amino]imidazo[1,2-b]pyridazin-8-yl}amino)pyridin-2-yl]cyclopropanecarboxamide], the figures for the pIC50 in assay [1] and in assay [2] were 6.59 and 6.34, respectively.

`CCNc1nc(Nc2cc(N[C@H]3CCCC[C@@H]3O)nn3c(C#N)cnc23)ccc1C(=O)N1CCCC1` [Example 29, 8-{[6-(ethylamino)-5-(pyrrolidine-1-carbonyl)pyridin-2-yl]amino}-6-{[(1S,2S)-2-hydroxycyclohexyl]amino}imidazo[1,2-b]pyridazine-3-carbonitrile]: the pIC50 in assay [1] is 6.85; in assay [2] it was 6.42.

As to `CN(C)c1nc(Nc2cc(N[C@@H]3CCCC[C@H]3O)nn3c(C#N)cnc23)ccc1C(=O)N1CCN(c2ccccc2F)CC1` [Example 30, 8-{[6-(dimethylamino)-5-[4-(2-fluorophenyl)piperazine-1-carbonyl]pyridin-2-yl]amino}-6-{[(1R,2R)-2-hydroxycyclohexyl]amino}imidazo[1,2-b]pyridazine-3-carbonitrile], the values for the pIC50 in assay [1] and in assay [2] were 6.41 and 6.14, respectively.

Consider `CN(CCc1ccccn1)C(=O)c1ccc(Nc2cc(N[C@@H]3CCCC[C@H]3O)nn3c(C#N)cnc23)nc1N(C)C` [Example 31, 6-[(3-cyano-6-{[(1R,2R)-2-hydroxycyclohexyl]amino}imidazo[1,2-b]pyridazin-8-yl)amino]-2-(dimethylamino)-N-methyl-N-[2-(pyridin-2-yl)ethyl]pyridine-3-carboxamide], for which the negative-log IC50 (pIC50) in assay [1] was 6.19; in assay [2], 6.06.

Consider `COCCNC(=O)c1ccc(Nc2cc(N[C@@H]3CCCC[C@H]3O)nn3c(C#N)cnc23)nc1N(C)C` [Example 32, 6-[(3-cyano-6-{[(1R,2R)-2-hydroxycyclohexyl]amino}imidazo[1,2-b]pyridazin-8-yl)amino]-2-(dimethylamino)-N-(2-methoxyethyl)pyridine-3-carboxamide], for which the values for the pIC50 in assay [1] and in assay [2] were 6.17 and 6.12, respectively.

On to `N#Cc1cnc2c(Nc3ccc(C(=O)N4CCCC4C(F)(F)F)c(OCC(F)F)n3)cc(N[C@@H]3CCCC[C@H]3O)nn12` (stereo partly drawn) [Example 33, 8-{[6-(2,2-difluoroethoxy)-5-[2-(trifluoromethyl)pyrrolidine-1-carbonyl]pyridin-2-yl]amino}-6-{[(1R,2R)-2-hydroxycyclohexyl]amino}imidazo[1,2-b]pyridazine-3-carbonitrile], for which the pIC50 in assay [1] is 6.17; in assay [2], 6.07.

Regarding `N#Cc1cnc2c(Nc3ccc(C(=O)N4C[C@H]5CC[C@@H]4C5)c(OCC(F)F)n3)cc(N[C@@H]3CCCC[C@H]3O)nn12` [Example 34, 8-({5-[(1R,4S)-2-azabicyclo[2.2.1]heptane-2-carbonyl]-6-(2,2-difluoroethoxy)pyridin-2-yl}amino)-6-{[(1R,2R)-2-hydroxycyclohexyl]amino}imidazo[1,2-b]pyridazine-3-carbonitrile], the pIC50 in assay [1] was 6.37; in assay [2], 6.24.

In the case of `N#Cc1cnc2c(Nc3ccc(C(=O)NCC4CCCO4)c(OCC(F)F)n3)cc(N[C@@H]3CCCC[C@H]3O)nn12` (stereo partly drawn) [Example 35, 6-[(3-cyano-6-{[(1R,2R)-2-hydroxycyclohexyl]amino}imidazo[1,2-b]pyridazin-8-yl)amino]-2-(2,2-difluoroethoxy)-N-[(oxolan-2-yl)methyl]pyridine-3-carboxamide], the pIC50 in assay [1] was 6.20; in assay [2], 6.21.

With `C[C@@H]1COC[C@H](C)N1C(=O)c1ccc(Nc2cc(N[C@H]3CCCC[C@@H]3O)nn3c(C#N)cnc23)nc1OCC(F)F` [Example 36, 8-{[6-(2,2-difluoroethoxy)-5-[(3R,5S)-3,5-dimethylmorpholine-4-carbonyl]pyridin-2-yl]amino}-6-{[(1S,2S)-2-hydroxycyclohexyl]amino}imidazo[1,2-b]pyridazine-3-carbonitrile], the pIC50 in assay [1] was 6.30; in assay [2] it was 6.12.

`CC(=O)NCc1ccc(-c2cccc(Nc3cc(N[C@@H]4CCCC[C@H]4O)nn4c(C#N)cnc34)n2)cc1` [Example 37, N-[(4-{6-[(3-cyano-6-{[(1R,2R)-2-hydroxycyclohexyl]amino}imidazo[1,2-b]pyridazin-8-yl)amino]pyridin-2-yl}phenyl)methyl]acetamide]: the pIC50 in assay [1] is 6.33; in assay [2], 6.26.

Consider `CS(=O)(=O)NCc1ccc(-c2cccc(Nc3cc(N[C@@H]4CCCC[C@H]4O)nn4c(C#N)cnc34)n2)cc1` [Example 38, N-[(4-{6-[(3-cyano-6-{[(1R,2R)-2-hydroxycyclohexyl]amino}imidazo[1,2-b]pyridazin-8-yl)amino]pyridin-2-yl}phenyl)methyl]methanesulfonamide], for which the pIC50 was 6.05 in assay [1] and 6.12 in assay [2].

As for `N#Cc1cnc2c(Nc3cccc(N4CCN(S(=O)(=O)N5CCOCC5)CC4)n3)cc(N[C@@H]3CCCC[C@H]3O)nn12` [Example 39, 6-{[(1R,2R)-2-hydroxycyclohexyl]amino}-8-({6-[4-(morpholine-4-sulfonyl)piperazin-1-yl]pyridin-2-yl}amino)imidazo[1,2-b]pyridazine-3-carbonitrile], the negative logarithm of the IC50 (pIC50) in assay [1] is 6.25; in assay [2] it was 6.10.

`CC(=O)N1[C@H](C)CN(c2cccc(Nc3cc(NC45CC6CC(CC(O)(C6)C4)C5)nn4c(C#N)cnc34)n2)C[C@@H]1C` [Example 40, 8-({6-[(3R,5S)-4-acetyl-3,5-dimethylpiperazin-1-yl]pyridin-2-yl}amino)-6-[(3-hydroxyadamantan-1-yl)amino]imidazo[1,2-b]pyridazine-3-carbonitrile]: the values for the pIC50 in assay [1] and in assay [2] were 6.59 and 6.41, respectively.
